# Experimental data published in patent publication US20110251128A1, “THYMOSIN Beta4 PEPTIDES PROMOTE TISSUE REGENERATION” (The Board of Regents of the University of Texas System, priority 2010, published 2011).
# “Also recorded” adds a separate entry of the source.
# Experiments:
# adult infarcted pigs = test: Ischemia reperfusion (acute myocardial infarction) in pigs with retroinfusion of peptides; assay type: in vivo, pig
# Method: Pigs: German pigs were purchased from the animal research department of the Ludwig-Maximilians-University (Oberschleissheim, Germany). Animal care and all experimental procedures were performed in accordance to the German and NIH animal legislation guidelines and were approved by the Bavarian Animal Care and Use Committee (AZ 55.2-1-54-2531-26/09). All animal experiments were conducted at the Walter Brendel Centre of Experimental Medicine, University of Munich.
# Ischemia reperfusion experiments: Pigs (n=5/experimental group) were anesthetized and instrumented as described previously (Hinkel et al., 2008). Briefly, a balloon was placed in the left anterior descending artery (LAD) distal to the bifurcation of the first diagonal branch and inflated for 60 min. Correct localization of the coronary occlusion and patency of the first diagonal branch were ensured by injection fluoroscopy. Regional application of TB4 peptides or saline solution was performed via selective pressure regulated retroinfusion for 10 min into the anterior interventricular vein (AIV) draining the LAD-perfused myocardium (Kupatt et al., 2005).
# Global myocardial function: At day 0 before ischemia induction and after 24 h of reperfusion myocardial function was obtained via Millar pressure tip catheter. Therefore the Millar pressure tip catheter was placed in the left ventricle and left ventricular pressure was recorded for off-line analysis.
# Regional myocardial function: 24 hours after induction of ischemia, sternotomy was performed and ultrasonic crystals were placed subendocardial into the area at risk, the infracted area as well as into the Cx perfusion area in a standardized manner. Subendocardial segment shortening (SES) was assessed under resting heart rate as well as at 120 and 150 beats/min atrial pacing (for 1 min/each).
# Infarct size and local inflammation: For assessment of infarct size methylene blue was injected in the left ventricle for negative staining of the AAR and tetrazolium red was applied into the LAD for viability staining in the infracted area. Thereafter, left ventricle was cut into slices (5 mm thick), and subjected to digital photography. Planimetry of different slices was conducted via ImageJ for assessment of infarct size in % of AAR. Tissue samples from infarct, area at risk and non-ischemic control were harvested for leukocyte recruitment. Myeloperoxidase assays were performed as previously described (Kupatt et al., 2005).
# Akt = test: Western blot anti-phosphoS473-Akt on heart lysates after coronary ligation; assay type: in vivo, mouse; conditions: 24 hours after treatment
# Source text: (§1) Animals and Surgical procedures. Mice: Myocardial infarctions were produced in seventy C57BL/6J male mice at 16 weeks of age (25-30 g) by ligation of the left anterior descending (LAD) coronary artery as described (Garner et al., 2003). All animal protocols were reviewed and approved by the University of Texas Southwestern Medical School Institutional Animal Care Advisory Committee and were in compliance with the rules governing animal use as published by the NIH. Mice were sedated in an isoflurane chamber (5%) for 60 seconds until self-designed coaxial mask could be safely applied. The mask supplied continuous isoflurane (2.0%) and oxygen (98.0%) under positive pressure from a Harvard small animal respirator throughout the procedures. […] Effective doses of the peptides were calculated based on optimal in vitro cell migration effect and on biodistribution calculations of full length TB4 (Mora et al., 1997). […]
# (§2) Western blot. […] The protein fraction was isolated from the interphase of the Trizol purification as recommended by the manufacturer; 10 μg of the total protein was loaded and analyzed by Western blot with protein-specific primary antibodies: VEGF, p-Marcks, p-Akt, and GAPDH (1:100) (Santa Cruz), Connexin43 (1:50) (Invitrogen), N-Cadherin (1:5000) (BD Biosciences) and pS368-Connexin43 (1:1000) (Cell Signaling Technology).
# mature coronary vessels = test: Immunohistochemistry, smooth muscle α-actin positive vessels at infarction border zone; assay type: in vivo, mouse
# Source text: Animals and Surgical procedures. Mice: Myocardial infarctions were produced in seventy C57BL/6J male mice at 16 weeks of age (25-30 g) by ligation of the left anterior descending (LAD) coronary artery as described (Garner et al., 2003). All animal protocols were reviewed and approved by the University of Texas Southwestern Medical School Institutional Animal Care Advisory Committee and were in compliance with the rules governing animal use as published by the NIH. Mice were sedated in an isoflurane chamber (5%) for 60 seconds until self-designed coaxial mask could be safely applied. The mask supplied continuous isoflurane (2.0%) and oxygen (98.0%) under positive pressure from a Harvard small animal respirator throughout the procedures. Immediately after ligation mice were injected with 200 ng of peptide in […] or […] PBS in collagen intracardially in the infarction border, and with […] PBS intraperitoneally as described (Bock-Marquette et al., 2004). Intraperitoneal injections were repeated every three days after ligation. Effective doses of the peptides were calculated based on optimal in vitro cell migration effect and on biodistribution calculations of full length TB4 (Mora et al., 1997). The inventors administered buprenorphine (0.05 mg/kg) for post-operative pain control. Hearts were removed 1, 14 and 21 days after ligation and processed for further investigations.
# Immunohistochemistry. Adult mouse cardiac tissue was fixed in 4% paraformaldehyde and sections were analyzed by immunohistochemistry. Hearts were sectioned at eight levels from the base to the apex. Serial sections were immunostained with primary antibodies against Pecam-1 and Wt-1 (1:50) (Santa Cruz), Smooth muscle a-actin (1:220) (Sigma), Sarcomeric a-actinin (1:200) (Sigma), Connexin43 (1:200) (Invitrogen), pS368-Connexin43 (1:200) (Cell Signaling Technology) as recommended by the manufacturer. Terminal deoxynucleotidyl transferase dUTP nick end labeling (TUNEL) assay was performed using In Situ Cell Detection kit (Roche). Number of sm a-actin positive capillaries and Wt-1 positive cells were counted at the infarction border zone in high power photographs at all levels of the sections in three peptide, TB4 and PBS treated hearts respectively.
# [1] = test system: Wt-1 positive cardiac progenitors; test: Immunohistochemistry, Wt-1 positive progenitor cells at infarction border; assay type: in vivo, mouse; conditions: border of the infarction, 21 days / three weeks after peptide injections
# Source text: as §1
# Immunohistochemistry. Adult mouse cardiac tissue was fixed in 4% paraformaldehyde and sections were analyzed by immunohistochemistry. […] Number of sm a-actin positive capillaries and Wt-1 positive cells were counted at the infarction border zone in high power photographs at all levels of the sections in three peptide, TB4 and PBS treated hearts respectively.
# N-Cadherin = test: Western blot of N-Cadherin in infarcted hearts; assay type: in vivo, mouse; conditions: infarction core and border zone, 21 days after infarction
# Source text: as §1, §2
# Connexin43 = Connexin43 expression (Western blot) and localization (immunohistology) in infarcted hearts; assay type: in vivo, mouse
# Source text: as §1, with “applied.” for “applied. The mask supplied continuous isoflurane (2.0%) and oxygen (98.0%) under positive pressure from a Harvard small animal respirator throughout the procedures.”
# as §2
# Immunohistochemistry. Adult mouse cardiac tissue was fixed in 4% paraformaldehyde and sections were analyzed by immunohistochemistry. […]
substance,measurement,setting,value
Thymosin β4 [TB4],left ventricular end-diastolic pressure,adult infarcted pigs; after ischemia and 24 h reperfusion,10.4+/−0.8 mmHg
same,regional myocardial function in the infarcted area,adult infarcted pigs; at rest and under increased heart rate (atrial pacing),significantly improved
same,infarct size,"adult infarcted pigs; in % of AAR, 60 min occlusion, retroinfusion at onset of reperfusion, n=5",35+/−3%
same,post-ischemic inflammatory leukocyte influx (myeloperoxidase activity),adult infarcted pigs; ischemic heart tissue after retroinfusion,reduced post-ischemic inflammatory leukocyte influx
same,Akt activation (phosphoS473-Akt),Akt,increased Akt activation
same,"number of mature, smooth muscle α-actin positive vessels","mature coronary vessels; 21 days / three weeks, compared to PBS","increase the number of mature, smooth muscle a-actin positive vessels"
same,number of mature coronary vessels,"mature coronary vessels; two weeks after treatment, compared to PBS (FIG. 10)",increases
same,number of Wt-1 positive cells,[1],increased significantly; also recorded: significant increase
same,N-Cadherin expression,N-Cadherin,"slight, but non-significant increase; also recorded: slightly upregulated"
same,Cx43 localization,Connexin43; border zone of cardiac infarction,stayed primarily at the intercalated discs; also recorded: mainly localized to the intercalated discs
same,Cx43 expression,"Connexin43; infarcted cores, 21 days after infarction",significant increase in Cx43 expression; also recorded: significant increase in Cx43 level
